Measured values taken from US9370547B2, “Compositions and methods for treating ischemia” (UNIVERSITY OF KENTUCKY RESEARCH FOUNDATION, priority 2014, dated 2016).

What was measured:
[1] = test system: claudin-5 expression in mouse brain endothelial cells; assay: Claudin-5 western blot and immunocytochemistry in brain endothelial cells after OGD; format: cell-based
Experimental: FIG. 11A includes a claudin-5 western blot of brain endothelial cells after OGD that were treated as labeled.
FIG. 11B includes plot showing the quantification of claudin-5 expression normalized to Ponceau S total protein stain for the samples show in FIG. 11A.
FIG. 11C includes images showing claudin-5 immunocytochemistry of WT mouse brain endothelial cells either just prior to (control) or 24 hours after OGD treated as labeled. Scale bar is 5 μm.

[2] = test system: WT mice after MCAo; conditions: mouse, in vivo
[3] = cited from earlier work

| Substance | claudin-5 levels compared with ATN-161 and normoxic control [1] | animal vital signs upon administration [2] | tolerability (signs of illness such as fur ruffling, weight differences) [2] | serum half-life ([3]; for some subjects) [h] | tissue distribution ([3]; in vivo) | safety of intravenous administration ([3]; intravenous) |
| --- | --- | --- | --- | --- | --- | --- |
| Ac-PhScN—NH2 | more effective than ATN-161 | – | – | – | – | – |
| Ac-PHSCN-NH2 [ATN-161] | – | did not alter animal vital signs | well tolerated | 3 to 5 | high tissue distribution | can be safely administered intravenously |
